PubChem BioAssay (NCI)
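96-well plates; 48 h exposure; 5 concentrations. Endpoints by linear interpolation between flanking doses. Not reached: highest tested concentration assigned. TGI: concentration producing complete growth inhibition.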

What was measured:
Assay in all cases: NCI tumour cell line growth inhibition, 48 h
SR leukemia = system: SR leukemia
SF-295 CNS = system: SF-295 CNS
IGROV1 ovarian = system: IGROV1 ovarian
NCI-H226 lung = system: NCI-H226 lung
SK-MEL-28 melanoma = system: SK-MEL-28 melanoma
NCI-H522 lung = system: NCI-H522 lung
CCRF-CEM leukemia = system: CCRF-CEM leukemia
NCI-H460 lung = system: NCI-H460 lung
SK-MEL-5 melanoma = system: SK-MEL-5 melanoma
SNB-75 CNS = system: SNB-75 CNS
CAKI-1 renal = system: CAKI-1 renal
PC-3 prostate = system: PC-3 prostate
HS 578T breast = system: HS 578T breast
MCF7 breast = system: MCF7 breast
NCI/ADR-RES ovarian = system: NCI/ADR-RES ovarian
MDA-MB-231 breast = system: MDA-MB-231 breast
BT-549 breast = system: BT-549 breast
DU-145 prostate = system: DU-145 prostate
MDA-N = system: MDA-N
T-47D breast = system: T-47D breast

SMILES | TGI (SR leukemia) | TGI (SF-295 CNS) | TGI (IGROV1 ovarian) | TGI (NCI-H226 lung) | TGI (SK-MEL-28 melanoma) | TGI (NCI-H522 lung) | TGI (CCRF-CEM leukemia) | TGI (NCI-H460 lung) | TGI (SK-MEL-5 melanoma) | TGI (SNB-75 CNS) | TGI (CAKI-1 renal) | TGI (PC-3 prostate) | TGI (HS 578T breast) | TGI (MCF7 breast) | TGI (NCI/ADR-RES ovarian) | TGI (MDA-MB-231 breast) | TGI (BT-549 breast) | TGI (DU-145 prostate) | TGI (MDA-N) | TGI (T-47D breast)
CSC(=N)N1N=C2/C(=C/c3ccccc3)CCC[C@H]2[C@H]1c1ccccc1 | 4.6 µM | 16.9 µM | 9.18 µM | 11.2 µM | 12 µM | 17.2 µM | 8.2 µM | 20.1 µM |  |  |  |  |  |  |  |  |  |  |  | 
CC(C)N(C(=O)C12C3C4C1C1C2C3C41C(=O)N(C(C)C)C(C)C)C(C)C (stereo unspecified) |  | > 50 µM | > 50 µM | > 50 µM | > 50 µM | > 50 µM | > 50 µM | > 50 µM | > 50 µM | > 50 µM | > 50 µM |  |  |  |  |  |  |  |  | 
CS(=O)(=O)C1(Br)S(=O)(=O)OCCOS1(=O)=O | > 100 µM | > 100 µM | > 100 µM | > 100 µM | > 100 µM | > 100 µM | > 100 µM | > 100 µM | > 100 µM | > 100 µM |  |  |  |  |  |  |  |  |  | 
O=[N+]([O-])/C=C/c1cn(CCCCCCCCCCCCn2cc(/C=C/[N+](=O)[O-])c3ccccc32)c2ccccc12 | > 100 µM |  | > 100 µM | > 100 µM | > 100 µM | > 100 µM | > 100 µM | > 100 µM | > 100 µM |  | > 100 µM | > 100 µM | > 100 µM | > 100 µM | > 100 µM | > 100 µM | > 100 µM | > 100 µM | > 100 µM | 
C/C(N=NS(=O)(=O)c1ccc(C)cc1)=C1\C=CC=CN1O | > 100 µM | > 100 µM | > 100 µM |  | > 100 µM | > 100 µM | > 100 µM | > 100 µM | > 100 µM | > 100 µM | > 100 µM |  |  |  |  |  |  |  |  | 
O=C1/C(=C/c2cccs2)NC(=S)N1CN1CCCCC1 | > 100 µM | > 100 µM | > 100 µM | > 100 µM | > 100 µM | > 100 µM | > 100 µM |  | > 100 µM | > 100 µM |  | > 100 µM | > 100 µM | > 100 µM | > 100 µM | > 100 µM |  | > 100 µM | > 100 µM | 
CNC(=O)N1N[C@H](c2ccccc2)[C@@H]1c1ccccc1 | 58.4 µM | 41.2 µM | 56.4 µM | 32.8 µM | 40.7 µM |  | > 100 µM | 53.4 µM | 32.8 µM | 92.2 µM | > 100 µM | 99.1 µM | > 100 µM | 62.5 µM | 36.6 µM | > 100 µM | 40.9 µM |  | > 100 µM | 
CC1CC(N2CCOCC2)=Nc2ccccc2N1Cc1ccccc1 (stereo unspecified) |  | > 100 µM | > 100 µM | > 100 µM | > 100 µM | > 100 µM | > 100 µM | > 100 µM | > 100 µM |  | > 100 µM | > 100 µM | > 100 µM |  | > 100 µM | > 100 µM | > 100 µM | > 100 µM |  | 
CN(C)C(F)=PC(F)(F)F (stereo unspecified) |  | > 100 µM | > 100 µM | > 100 µM | > 100 µM | > 100 µM | > 100 µM | > 100 µM | > 100 µM | > 100 µM | > 100 µM |  |  |  |  |  |  |  |  | 
COC(=O)c1ccc(C=C(C#N)C#N)cc1 |  | 91.6 µM | 73.8 µM | 80.4 µM | 39.9 µM | 30.1 µM | 51.9 µM | > 100 µM | 33.1 µM | 82.5 µM | 74.7 µM |  |  |  |  |  |  |  |  | 
CN(CCNC(=S)c1cn(C)c2c1ccc1ccccc12)CCNC(=S)c1cn(C)c2c1ccc1ccccc12 | > 100 µM | > 100 µM | > 100 µM |  | > 100 µM | > 100 µM | > 100 µM | > 100 µM | > 100 µM | > 100 µM | > 100 µM | > 100 µM | > 100 µM | > 100 µM | > 100 µM | > 100 µM | > 100 µM | > 100 µM |  | 28.6 µM
COC(=O)CCC(NC(=S)N/N=C(\C)c1cnccn1)C(=O)OC (stereo unspecified) | > 100 µM | > 100 µM | > 100 µM | > 100 µM | > 100 µM | 84 µM | 58.1 µM | > 100 µM | > 100 µM | > 100 µM |  |  |  |  |  |  |  |  |  | 
O=c1ccc2ccccc2c2ccccc12 | 4.66 µM | 13.3 µM | 19 µM | 15.1 µM | 16.8 µM | 11.2 µM | 11.4 µM | 13.8 µM | 12.7 µM | 10.8 µM | 8.55 µM |  |  |  |  |  |  |  |  | 
CSc1ccc2c(cc1=O)C(NC(=O)c1ccc(C#N)cc1)CCc1cc(O)c(O)c(O)c1-2 (stereo unspecified) | 48.7 µM | 74.7 µM |  | 59.1 µM | > 100 µM | 40.3 µM | 57.8 µM | 73.3 µM | 71.5 µM | 14.6 µM |  |  |  |  |  |  |  |  |  | 
c1ccc(C2=C(c3ccccc3)Sc3nnc(CCCCCCCCc4nnc5n4NC(c4ccccc4)=C(c4ccccc4)S5)n3N2)cc1 | > 100 µM | > 100 µM |  | > 100 µM | > 100 µM | > 100 µM | 72.4 µM | > 100 µM | > 100 µM | > 100 µM | > 100 µM | > 100 µM | > 100 µM | > 100 µM | > 100 µM | > 100 µM | > 100 µM | > 100 µM |  | 79.2 µM
CN(C)CC(/C(Cc1ccccc1)=N\NC(=S)NN)c1ccccc1 (stereo unspecified) | > 100 µM | > 100 µM | > 100 µM | > 100 µM | > 100 µM | > 100 µM |  | > 100 µM |  | > 100 µM | > 100 µM |  |  |  |  |  |  |  |  | 
CCC(=O)C(CCN1CCC(N2C(=O)C(CCC#N)c3ccccc32)CC1)(c1ccccc1)c1ccccc1 (stereo unspecified) | 10.2 µM | 26.1 µM | 30.5 µM | 32.6 µM | 34.9 µM | 25.8 µM |  | 26.9 µM | 22.1 µM | 31.7 µM | 96.4 µM | 43.2 µM | 26.5 µM | 25.5 µM | 25 µM | 20.8 µM | 26.2 µM | 26.5 µM |  | 29.3 µM
O=C1CSC(c2ccccc2O)N1c1ccc(Oc2ccc(Cl)cc2)c(Cl)c1 (stereo unspecified) | 40.2 µM | 34.5 µM | 77.4 µM | > 100 µM | 57.4 µM | 36.8 µM | 65.1 µM | 43.6 µM | 33.8 µM | 47.3 µM | 74 µM | 60 µM | 38 µM | 86.3 µM | 48.4 µM | 34.3 µM | 34.9 µM | 59.8 µM |  | 46.8 µM
S=C(N/N=C/c1ccccn1)N1CCCCCC1 | 0.93 µM | > 100 µM |  | 1.94 µM | > 100 µM | 5.9 µM | 0.393 µM | 0.211 µM | 1.18 µM | 0.987 µM |  | > 100 µM | > 100 µM | 25.3 µM | 0.105 µM |  | 22.6 µM | > 100 µM | > 48.9 µM | 
Nc1nc2ncn(CC(O)CO)c2c(=O)[nH]1 (stereo unspecified) | > 100 µM | > 100 µM | > 100 µM | > 100 µM | > 100 µM | > 100 µM | > 100 µM | > 100 µM | > 100 µM | > 100 µM | > 100 µM |  |  |  |  |  |  |  |  | 
Nc1nc2c(ncn2CCCC(c2ccccc2)P(=O)(O)O)c(=O)[nH]1 (stereo unspecified) |  | > 100 µM | > 100 µM |  | > 100 µM | > 100 µM | > 100 µM | > 100 µM | > 100 µM | > 100 µM | > 100 µM |  |  |  |  |  |  |  |  | 
COc1cc(-c2cc(=O)c3ccccc3[nH]2)cc(OC)c1OC | > 75 µM | > 75 µM |  |  | > 75 µM | > 75 µM | > 75 µM | > 75 µM |  | > 75 µM |  |  |  |  |  |  |  |  |  | 
COc1ccc(C(=O)Oc2c(C#N)sc3c2c(=O)n(-c2ccccc2)c(=S)n3-c2ccccc2)cc1 |  | > 100 µM | 44.4 µM | 57 µM | > 100 µM | 4.11 µM | 74 µM | > 100 µM | 58 µM | > 100 µM | 68.9 µM | 98.7 µM | 69.6 µM | 80.4 µM | 52 µM | > 100 µM |  | > 100 µM |  | > 100 µM
Oc1cccnc1/C=N/OCc1ccccc1 |  | > 100 µM | > 100 µM | > 100 µM |  | > 100 µM | > 100 µM | > 100 µM | > 100 µM | > 100 µM | > 100 µM |  |  |  |  |  |  |  |  | 
O=C(Nc1nc2ncn(CCO)c2c(=O)[nH]1)c1ccccc1 | > 100 µM | > 100 µM | > 100 µM | > 100 µM | > 100 µM | > 100 µM | > 100 µM | > 100 µM | > 100 µM | > 100 µM | > 100 µM |  |  |  |  |  |  |  |  | 
O=C(O)C12CC3CC(CC(F)(C3)C1)C2 |  |  | > 100 µM |  | > 100 µM | > 100 µM | > 100 µM | > 100 µM | > 100 µM | > 100 µM |  |  |  |  |  |  |  |  |  | 
COc1ccc(/C=C/c2cc(OC)c(OCc3ccccc3)c(OC)c2)cc1 | > 100 µM |  | > 100 µM | > 100 µM | > 100 µM | > 100 µM | > 100 µM | > 100 µM |  | > 100 µM | > 100 µM |  |  |  |  |  |  |  |  | 
NC(CCCCNCc1ccccc1O)C(=O)O (stereo unspecified) |  | > 100 µM | > 100 µM | > 100 µM | > 100 µM | > 100 µM | > 100 µM | > 100 µM | > 100 µM | > 100 µM | > 100 µM |  |  |  |  |  |  |  |  | 
